According to PubChem BioAssay (NCI):
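In this assay, cells in 96-well plates receive the compound at five concentrations for 48 hours. Endpoints are linearly interpolated between the surrounding concentrations. The concentration for 50% growth inhibition is given as GI50. TGI marks complete inhibition of growth.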

Assays:
Assay in all cases: inhibition of tumour cell growth, NCI panel, 48 h
HCC-2998 colon = test system: HCC-2998 colon
HCT-15 colon = test system: HCT-15 colon
NCI-H23 lung = test system: NCI-H23 lung
HL-60(TB) leukemia = test system: HL-60(TB) leukemia
OVCAR-5 ovarian = test system: OVCAR-5 ovarian
MOLT-4 leukemia = test system: MOLT-4 leukemia
OVCAR-3 ovarian = test system: OVCAR-3 ovarian
SK-MEL-28 melanoma = test system: SK-MEL-28 melanoma
HOP-92 NSCLC = test system: HOP-92 NSCLC
T-47D breast = test system: T-47D breast

Cc1nc(-n2nc(-c3ccccc3)cc2-c2ccccc2)sc1C(=O)/C=C/c1ccc(/C=C/C(=O)c2sc(-n3nc(-c4ccccc4)cc3-c3ccccc3)nc2C)cc1
TGI (HCC-2998 colon): 39.3 µM | TGI (HCT-15 colon): > 100 µM | TGI (NCI-H23 lung): 35.3 µM | TGI (HL-60(TB) leukemia): > 100 µM | TGI (OVCAR-5 ovarian): 57.5 µM | TGI (MOLT-4 leukemia): 68.6 µM | TGI (OVCAR-3 ovarian): 59.3 µM | TGI (SK-MEL-28 melanoma): 41.8 µM

Cc1cn(C2CC(O)C(COC(=O)c3ccccc3)O2)c(=O)[nH]c1=O (centres undefined)
TGI (HCC-2998 colon): > 100 µM | TGI (HCT-15 colon): > 100 µM | TGI (HOP-92 NSCLC): > 100 µM | TGI (NCI-H23 lung): > 100 µM | TGI (HL-60(TB) leukemia): > 100 µM | TGI (OVCAR-5 ovarian): > 100 µM | TGI (MOLT-4 leukemia): > 100 µM | TGI (OVCAR-3 ovarian): > 100 µM | TGI (SK-MEL-28 melanoma): > 100 µM

COC(=O)C(Cc1cc(OC)c(OC)c(OC)c1)C(=O)OC
TGI (HCC-2998 colon): > 320 µM | TGI (HCT-15 colon): > 320 µM | TGI (HOP-92 NSCLC): > 320 µM | TGI (NCI-H23 lung): > 320 µM | TGI (HL-60(TB) leukemia): > 320 µM | TGI (OVCAR-5 ovarian): > 320 µM | TGI (MOLT-4 leukemia): > 320 µM | TGI (OVCAR-3 ovarian): > 320 µM | TGI (SK-MEL-28 melanoma): > 320 µM

N.N.N.N.N.[Co+3].[I-].[N-]=[N+]=[N-]
GI50 (HCC-2998 colon): > 100000 nM | TGI (HCC-2998 colon): > 100 µM | GI50 (HCT-15 colon): > 100 µM | TGI (HCT-15 colon): > 100 µM | GI50 (HOP-92 NSCLC): > 100000 nM | TGI (HOP-92 NSCLC): > 100 µM | GI50 (NCI-H23 lung): > 100 µM | TGI (NCI-H23 lung): > 100 µM | GI50 (OVCAR-5 ovarian): > 100 µM | TGI (OVCAR-5 ovarian): > 100 µM | GI50 (MOLT-4 leukemia): 5.41 µM | TGI (MOLT-4 leukemia): > 100 µM | GI50 (OVCAR-3 ovarian): > 100 µM | TGI (OVCAR-3 ovarian): > 100 µM | GI50 (SK-MEL-28 melanoma): > 100000 nM | TGI (SK-MEL-28 melanoma): > 100 µM

N#CCCN(c1ccc(C=Nc2ccccc2)cc1)S(=O)(=O)c1ccccc1
TGI (HCC-2998 colon): > 100 µM | TGI (HOP-92 NSCLC): > 100 µM | TGI (NCI-H23 lung): > 100 µM | TGI (HL-60(TB) leukemia): > 100 µM | TGI (MOLT-4 leukemia): > 100 µM | TGI (OVCAR-3 ovarian): > 100 µM | TGI (SK-MEL-28 melanoma): > 100 µM

N#Cc1cccc2c1Nc1ccccc1S2
TGI (HCC-2998 colon): > 100 µM | TGI (HCT-15 colon): > 100 µM | TGI (HOP-92 NSCLC): 92.3 µM | TGI (NCI-H23 lung): > 100 µM | TGI (HL-60(TB) leukemia): > 100 µM | TGI (OVCAR-5 ovarian): > 100 µM | TGI (MOLT-4 leukemia): > 100 µM | TGI (OVCAR-3 ovarian): > 100 µM | TGI (SK-MEL-28 melanoma): > 100 µM

CN1c2ccccc2N(C(=O)c2ccc([N+](=O)[O-])cc2)C(CC(=O)O)c2cccn21 (centres undefined)
TGI (HCC-2998 colon): > 100 µM | TGI (HCT-15 colon): > 100 µM | TGI (HOP-92 NSCLC): > 100 µM | TGI (NCI-H23 lung): > 100 µM | TGI (HL-60(TB) leukemia): > 100 µM | TGI (OVCAR-5 ovarian): > 100 µM | TGI (MOLT-4 leukemia): > 100 µM | TGI (OVCAR-3 ovarian): > 100 µM | TGI (SK-MEL-28 melanoma): > 100 µM

COC(=O)CCC(NC(=S)N/N=C(\C)c1cnc2ccccc2n1)C(=O)OC (centres undefined)
TGI (HCC-2998 colon): > 100 µM | TGI (HCT-15 colon): > 100 µM | TGI (NCI-H23 lung): > 100 µM | TGI (HL-60(TB) leukemia): 9.3 µM | TGI (OVCAR-5 ovarian): 63.4 µM | TGI (MOLT-4 leukemia): 59.4 µM | TGI (OVCAR-3 ovarian): > 100 µM | TGI (SK-MEL-28 melanoma): > 100 µM

Cn1c2c(c3ccccc31)CCN(CCCCN1CCCCC1)C2=O
TGI (HCT-15 colon): > 100 µM | TGI (HOP-92 NSCLC): > 100 µM | TGI (NCI-H23 lung): > 100 µM | TGI (HL-60(TB) leukemia): > 100 µM | TGI (OVCAR-5 ovarian): > 100 µM | TGI (MOLT-4 leukemia): > 100 µM | TGI (OVCAR-3 ovarian): > 100 µM | TGI (SK-MEL-28 melanoma): > 100 µM

O=C(N/C(=C\c1ccc(Cl)cc1)c1nc2ccccc2[nH]1)c1ccccc1
TGI (HCT-15 colon): > 100 µM | TGI (HOP-92 NSCLC): 33.6 µM | TGI (NCI-H23 lung): 42.9 µM | TGI (OVCAR-5 ovarian): 85 µM | TGI (MOLT-4 leukemia): 43.2 µM | TGI (OVCAR-3 ovarian): 49 µM | TGI (SK-MEL-28 melanoma): 36.4 µM

Cc1nc2ccc(Nc3nc(Cl)nc(N4CCOCC4)n3)cc2n1Cc1ccccc1
GI50 (HCC-2998 colon): 2050 nM | TGI (HCC-2998 colon): 3.85 µM | GI50 (HCT-15 colon): 2.94 µM | TGI (HCT-15 colon): 14.1 µM | GI50 (HOP-92 NSCLC): 2070 nM | TGI (HOP-92 NSCLC): 6.36 µM | GI50 (NCI-H23 lung): 1.94 µM | TGI (NCI-H23 lung): 3.92 µM | GI50 (T-47D breast): 3.27 µM | TGI (T-47D breast): > 100 µM | GI50 (OVCAR-5 ovarian): > 100 µM | TGI (OVCAR-5 ovarian): > 100 µM | GI50 (OVCAR-3 ovarian): 4.19 µM | TGI (OVCAR-3 ovarian): 36 µM | GI50 (SK-MEL-28 melanoma): 1750 nM | TGI (SK-MEL-28 melanoma): 3.29 µM

CCN(CC)c1cccc2c1/C(=N/O)CCCC2
TGI (HCT-15 colon): > 100 µM | TGI (NCI-H23 lung): > 100 µM | TGI (HL-60(TB) leukemia): > 100 µM | TGI (MOLT-4 leukemia): > 100 µM | TGI (SK-MEL-28 melanoma): > 100 µM

COc1cc(Nc2nc3cc(N)cc(N)c3nc2-c2ccccc2)cc(OC)c1OC
GI50 (HCT-15 colon): 15.3 µM | TGI (HCT-15 colon): 45.4 µM | GI50 (HOP-92 NSCLC): 2730 nM | TGI (HOP-92 NSCLC): 21 µM | GI50 (NCI-H23 lung): 24.9 µM | TGI (NCI-H23 lung): 76.7 µM | GI50 (T-47D breast): 6.07 µM | TGI (T-47D breast): 27.3 µM | GI50 (HL-60(TB) leukemia): 6.65 µM | TGI (HL-60(TB) leukemia): 23.3 µM | GI50 (OVCAR-5 ovarian): 21.3 µM | TGI (OVCAR-5 ovarian): 46.7 µM | GI50 (MOLT-4 leukemia): 2.57 µM | TGI (MOLT-4 leukemia): 18 µM | GI50 (OVCAR-3 ovarian): 14.2 µM | TGI (OVCAR-3 ovarian): 37.1 µM | GI50 (SK-MEL-28 melanoma): 1450 nM | TGI (SK-MEL-28 melanoma): 20.7 µM

CC(C)OP(=O)(OC(C)C)/C(Cl)=N/Nc1ccc([N+](=O)[O-])cc1
TGI (HCC-2998 colon): > 100 µM | TGI (HCT-15 colon): > 100 µM | TGI (HOP-92 NSCLC): > 100 µM | TGI (NCI-H23 lung): > 100 µM | TGI (HL-60(TB) leukemia): > 100 µM | TGI (OVCAR-5 ovarian): > 100 µM | TGI (MOLT-4 leukemia): > 100 µM | TGI (OVCAR-3 ovarian): > 100 µM | TGI (SK-MEL-28 melanoma): > 100 µM

O=C(CC(Cl)=C(Cl)Cl)Nc1ccccc1
GI50 (HCT-15 colon): > 100 µM | TGI (HCT-15 colon): > 100 µM | TGI (HOP-92 NSCLC): > 100 µM | GI50 (NCI-H23 lung): > 100 µM | TGI (NCI-H23 lung): > 100 µM | GI50 (T-47D breast): > 100 µM | TGI (T-47D breast): > 100 µM | GI50 (HL-60(TB) leukemia): > 100 µM | TGI (HL-60(TB) leukemia): > 100 µM | GI50 (OVCAR-5 ovarian): > 100 µM | TGI (OVCAR-5 ovarian): > 100 µM | GI50 (MOLT-4 leukemia): > 100 µM | TGI (MOLT-4 leukemia): > 100 µM | GI50 (SK-MEL-28 melanoma): > 100000 nM | TGI (SK-MEL-28 melanoma): > 100 µM

CCCNC(=S)/N=C/c1c(O)cc(C)oc1=O
TGI (HCC-2998 colon): > 100 µM | TGI (HCT-15 colon): > 100 µM | TGI (HOP-92 NSCLC): > 100 µM | TGI (NCI-H23 lung): > 100 µM | TGI (T-47D breast): > 100 µM | TGI (OVCAR-5 ovarian): > 100 µM | TGI (MOLT-4 leukemia): > 100 µM | TGI (OVCAR-3 ovarian): > 100 µM | TGI (SK-MEL-28 melanoma): > 100 µM

C/C(=C1/N=C(c2cc([N+](=O)[O-])ccc2Cl)N(c2cccc(C)c2)C1=O)c1cc2ccccc2oc1=O
TGI (HCC-2998 colon): > 100 µM | TGI (HCT-15 colon): > 100 µM | TGI (HOP-92 NSCLC): > 100 µM | TGI (NCI-H23 lung): > 100 µM | TGI (HL-60(TB) leukemia): > 100 µM | TGI (OVCAR-5 ovarian): > 100 µM | TGI (MOLT-4 leukemia): > 100 µM | TGI (OVCAR-3 ovarian): > 100 µM | TGI (SK-MEL-28 melanoma): > 100 µM

CN(CCN1C(=O)c2cc([N+](=O)[O-])cc3cc([N+](=O)[O-])cc(c23)C1=O)CCN1C(=O)c2cc([N+](=O)[O-])cc3cc([N+](=O)[O-])cc(c23)C1=O
TGI (HCC-2998 colon): 23.8 µM | TGI (HCT-15 colon): 8.65 µM | TGI (HOP-92 NSCLC): 2.2 µM | TGI (NCI-H23 lung): 27.9 µM | TGI (HL-60(TB) leukemia): 0.536 µM | TGI (OVCAR-5 ovarian): > 45.6 µM | TGI (OVCAR-3 ovarian): > 28 µM | TGI (SK-MEL-28 melanoma): 20.3 µM

O=C1C2Nc3ccccc3SC2C(=O)N1c1ccc(Br)cc1 (centres undefined)
TGI (HCC-2998 colon): > 100 µM | TGI (HCT-15 colon): > 100 µM | TGI (HOP-92 NSCLC): 33.2 µM | TGI (NCI-H23 lung): > 100 µM | TGI (OVCAR-5 ovarian): > 100 µM | TGI (MOLT-4 leukemia): > 100 µM | TGI (OVCAR-3 ovarian): 99.5 µM | TGI (SK-MEL-28 melanoma): > 100 µM

COc1ccc(/C=C(/C#N)C(N)=O)c(OC)c1
TGI (HCT-15 colon): > 100 µM | TGI (HOP-92 NSCLC): > 100 µM | TGI (NCI-H23 lung): > 100 µM | TGI (T-47D breast): > 100 µM | TGI (HL-60(TB) leukemia): > 100 µM | TGI (OVCAR-5 ovarian): > 100 µM | TGI (MOLT-4 leukemia): > 100 µM | TGI (OVCAR-3 ovarian): > 100 µM | TGI (SK-MEL-28 melanoma): > 100 µM

CN1C(=O)CCC1(O)C1C=CC=CC1 (centres undefined)
TGI (HCC-2998 colon): > 100 µM | TGI (HCT-15 colon): > 100 µM | TGI (NCI-H23 lung): > 100 µM | TGI (HL-60(TB) leukemia): > 100 µM | TGI (OVCAR-5 ovarian): > 100 µM | TGI (MOLT-4 leukemia): > 100 µM | TGI (OVCAR-3 ovarian): > 100 µM | TGI (SK-MEL-28 melanoma): > 100 µM
